# Test results reported in patent US20110166149A1, “PTERIDINE DERIVATIVES FOR TREATING RESPIRATORY DISEASE” (TARGEGEN INC., priority 2008, published 2011).
# Where two headings read alike, the source gives them in different places. Marks after values point to notes of the source that are not given here.
# Assay: Inhalation exposure: Compound A concentration in lung, plasma and BALF (Example 2)
# Format: in vivo, BALB/c mice
# Details: for concentration at 0.5 h / concentration at 1 h / concentration at 2 h / concentration at 4 h / concentration at 8 h / concentration at 12 h / concentration at 24 h / concentration at 0.083 h / concentration at 0.25 h: male, BALB/c, mouse, lung, inhaled, read-out: Compound A concentration Lung; for concentration at 0.5 h / concentration at 1 h / concentration at 2 h / concentration at 4 h / concentration at 8 h / concentration at 12 h / concentration at 24 h / concentration at 0.083 h / concentration at 0.25 h / Compound A concentration Plasma: mice, 30 min inhalation
# Description: A series of compositions for pulmonary delivery were prepared by making a 20% suspension of compound A in a 5% tyloxapol solution in water. Particle size reduction was achieved using a colloid mill (magicLAB®, MK module, for 6 hours @ 12,000 rpm, while maintaining a temperature below 50° C.). Samples at 4% w/v compound A were prepared by dilution with DI water.
# Low (0.02 mg/L), mid (0.07 mg/L), and high (0.20 mg/L) target aerosol concentrations 0.3% Compound A/0.075% tyloxapol, 0.6% Compound A/0.15% tyloxapol, and 1.5% Compound A/0.375% tyloxapol suspensions were used. These low, mid, and high target formulations were prepared as follows: […]
# 4% compound A and 1% tyloxapol were removed from refrigeration and approximately 2.25, 4.5, and 12 mL were transferred into clean 50 mL graduated plastic tubes, labeled 0.3% A/0.075% tyloxapol, 0.6% A/0.15% tyloxapol, and 1.5% A/0.375% tyloxapol suspensions and allowed to warm to room temperature. Each was diluted to 20 mL with ultra pure water and vortexed until completely mixed. Each formulation was made the morning of exposure to alleviate any storing/stability issues.
# Eighty-seven (87) male BALB/c mice (8 weeks of age on arrival and 18.6-24.6 g on exposure day) were purchased from Charles River Laboratories (Raleigh, N.C.). The three animals with the lowest body weights and the three with the highest body weights were excluded from the study on the day of randomization. The remaining eighty-one (81) animals were assigned to the study. Temperatures and relative humidity (RH) in animal housing areas were within the target range specified in the protocol.
# Animals were exposed to one of three concentrations of Compound A aerosols for a target of 30 min.
# The actual concentrations of test article in the exposure atmospheres were determined by chemical analysis of timed filter samples collected directly from a nose-only exposure port during exposure. In addition, one impactor sample was obtained to verify particle size distribution (PSD), which is characterized by mass median aerodynamic diameter (MMAD) and geometric standard deviation (GSD). The filters and impactor stages were analyzed chemically by LRRI and are described below.
# [1] = nominal aerosol 0.02 mg/L, 0.5 h
# [2] = nominal aerosol 0.02 mg/L, 12 h
# [3] = nominal aerosol 0.02 mg/L, 24 h
# [4] = nominal aerosol 0.07 mg/L, 0.083 h
# [5] = nominal aerosol 0.07 mg/L, 0.25 h
# [6] = nominal aerosol 0.07 mg/L, 0.5 h
# [7] = nominal aerosol 0.07 mg/L, 12 h
# [8] = nominal aerosol 0.07 mg/L, 24 h
# [9] = nominal aerosol 0.2 mg/L, 0.083 h
# [10] = nominal aerosol 0.2 mg/L, 0.25 h
# [11] = nominal aerosol 0.2 mg/L, 0.5 h
# [12] = mouse lung, aerosol conc. 0.02 mg/L
# [13] = mouse lung, aerosol conc. 0.07 mg/L
# [14] = mouse lung, aerosol conc. 0.2 mg/L
smiles,measurement,setting,value
"Nc1nc(N)c2nc(-c3cccc(O)c3)c(-c3cccc(O)c3)nc2n1 [Compound A, 6,7-bis(3-hydroxyphenyl)-pteridine-2,4-diamine]",concentration at 0.5 h,[1],11700 ± 8050 ng/g
same,concentration at 1 h,"nominal aerosol 0.02 mg/L, 1 h",11800 ± 7260 ng/g
same,concentration at 2 h,"nominal aerosol 0.02 mg/L, 2 h",9550 ± 840 ng/g
same,concentration at 4 h,"nominal aerosol 0.02 mg/L, 4 h",10500 ± 3250 ng/g
same,concentration at 8 h,"nominal aerosol 0.02 mg/L, 8 h",5660 ± 3390 ng/g
same,concentration at 12 h,[2],8670 ± 2310 ng/g
same,concentration at 24 h,[3],3390 ± 2540 ng/g
same,concentration at 0.083 h,[4],20600 ± 10100 ng/g
same,concentration at 0.25 h,[5],16500 ± 2250 ng/g
same,concentration at 0.5 h,[6],16600 ± 600 ng/g
same,concentration at 1 h,"nominal aerosol 0.07 mg/L, 1 h",17200 ± 2430 ng/g
same,concentration at 2 h,"nominal aerosol 0.07 mg/L, 2 h",22700 ± 5090 ng/g
same,concentration at 4 h,"nominal aerosol 0.07 mg/L, 4 h",17000 ± 1620 ng/g
same,concentration at 8 h,"nominal aerosol 0.07 mg/L, 8 h",15900 ± 3310 ng/g
same,concentration at 12 h,[7],16800 ± 12500 ng/g
same,concentration at 24 h,[8],10800 ± 660 ng/g
same,concentration at 0.083 h,[9],41000 ± 10300 ng/g
same,concentration at 0.25 h,[10],39200 ± 12300 ng/g
same,concentration at 0.5 h,[11],67200 ± 39100 ng/g
same,concentration at 1 h,"nominal aerosol 0.2 mg/L, 1 h",37700 ± 8070 ng/g
same,concentration at 2 h,"nominal aerosol 0.2 mg/L, 2 h",49300 ± 15400 ng/g
same,concentration at 4 h,"nominal aerosol 0.2 mg/L, 4 h",44600 ± 2400 ng/g
same,concentration at 8 h,"nominal aerosol 0.2 mg/L, 8 h",44000 ± 12000 ng/g
same,concentration at 12 h,"nominal aerosol 0.2 mg/L, 12 h",40800 ± 6290 ng/g
same,concentration at 24 h,"nominal aerosol 0.2 mg/L, 24 h",26800 ± 2630 ng/g
same,Compound A concentration Plasma,"nominal aerosol 0.02 mg/L, 0.083 h",2.16 (⅔) ng/mL
same,Compound A concentration Plasma,"nominal aerosol 0.02 mg/L, 0.25 h",<LLOQ
same,Compound A concentration Plasma,[1],1.98 (⅔) ng/mL
same,Compound A concentration Plasma,"nominal aerosol 0.02 mg/L, 1 h",1.19 (⅓) ng/mL
same,Compound A concentration Plasma,"nominal aerosol 0.02 mg/L, 2 h",<LLOQ
same,Compound A concentration Plasma,"nominal aerosol 0.02 mg/L, 4 h",<LLOQ
same,Compound A concentration Plasma,"nominal aerosol 0.02 mg/L, 8 h",<LLOQ
same,Compound A concentration Plasma,[2],<LLOQ
same,Compound A concentration Plasma,[3],<LLOQ
same,Compound A concentration Plasma,[4],5.43 (⅓) ng/mL
same,Compound A concentration Plasma,[5],1.03 (⅓) ng/mL
same,Compound A concentration Plasma,[6],2.45 (⅓) ng/mL
same,Compound A concentration Plasma,"nominal aerosol 0.07 mg/L, 1 h",<LLOQ
same,Compound A concentration Plasma,"nominal aerosol 0.07 mg/L, 2 h",<LLOQ
same,Compound A concentration Plasma,"nominal aerosol 0.07 mg/L, 4 h",<LLOQ
same,Compound A concentration Plasma,"nominal aerosol 0.07 mg/L, 8 h",<LLOQ
same,Compound A concentration Plasma,[7],2.05 (⅓) ng/mL
same,Compound A concentration Plasma,[8],<LLOQ
same,Compound A concentration Plasma,[9],1.34 (⅔) ng/mL
same,Compound A concentration Plasma,[10],1.43 (⅓) ng/mL
same,Compound A concentration Plasma,[11],1.15 (⅓) ng/mL
same,Compound A concentration Plasma,"nominal aerosol 0.2 mg/L, 1 h",1.62 (⅔) ng/mL
same,Compound A concentration Plasma,"nominal aerosol 0.2 mg/L, 2 h",1.21 (⅓) ng/mL
same,Compound A concentration Plasma,"nominal aerosol 0.2 mg/L, 4 h",1.21 (⅔) ng/mL
same,Compound A concentration Plasma,"nominal aerosol 0.2 mg/L, 8 h",2.19 (⅓) ng/mL
same,Compound A concentration Plasma,"nominal aerosol 0.2 mg/L, 12 h",2.08 (⅔) ng/mL
same,Compound A concentration Plasma,"nominal aerosol 0.2 mg/L, 24 h",<LLOQ
same,Thalf,"mouse BALF, aerosol conc. 0.02 mg/L",39.8 h
same,Thalf,"mouse BALF, aerosol conc. 0.07 mg/L",16.7 h
same,Thalf,"mouse BALF, aerosol conc. 0.2 mg/L",17.0 h
same,AUC(0-24),[12],176 µg·h/g
same,AUCinf,[12],247 µg·h/g
same,Thalf,"mouse lung, aerosol conc. 0.02 mg/L, Regression Coefficient is less than 0.9",14.5^# hrs
same,AUC(0-24),[13],373 µg·h/g
same,AUCinf,[13],757 µg·h/g
same,Thalf,"mouse lung, aerosol conc. 0.07 mg/L, Regression Coefficient is less than 0.9",24.6^# hrs
same,AUC(0-24),[14],938 µg·h/g
same,AUCinf,[14],1777 µg·h/g
same,Thalf,[14],21.7 h
